The term Ki denotes a dissociation constant, usually derived from enzyme kinetics or from competition with a known ligand. Lower therefore signals higher affinity.

The values below come from article PMC2898382 (The Journal of Biological Chemistry, 2010).

This experiment addresses T1, purified bovine catalase (Bos taurus, UniProt P00432).
T1 sequence (P00432 2-527): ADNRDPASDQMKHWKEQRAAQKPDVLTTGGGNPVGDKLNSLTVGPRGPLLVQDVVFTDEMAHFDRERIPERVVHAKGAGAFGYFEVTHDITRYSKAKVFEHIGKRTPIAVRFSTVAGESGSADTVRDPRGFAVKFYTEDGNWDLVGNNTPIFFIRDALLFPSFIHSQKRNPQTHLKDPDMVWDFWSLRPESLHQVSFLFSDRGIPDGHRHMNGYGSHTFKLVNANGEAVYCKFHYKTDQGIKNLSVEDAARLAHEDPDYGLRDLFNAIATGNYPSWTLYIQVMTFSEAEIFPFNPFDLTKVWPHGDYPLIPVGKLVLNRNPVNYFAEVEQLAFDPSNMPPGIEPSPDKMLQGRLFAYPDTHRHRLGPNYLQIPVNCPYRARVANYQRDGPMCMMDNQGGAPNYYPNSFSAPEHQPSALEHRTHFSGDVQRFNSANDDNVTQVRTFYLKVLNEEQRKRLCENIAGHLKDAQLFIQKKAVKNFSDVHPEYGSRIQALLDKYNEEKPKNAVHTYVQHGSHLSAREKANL
Nature of the experiment: H2O2 breakdown at […] nm, global fit to competitive inhibition model. The experiment is classed as biochemical.

The compound `NC(=O)NO` [Hydroxyurea] showed a Ki of 230 µM.
